Non-standard residues stand in square brackets, D forms with d. Residues, ends and D or L forms follow the SMILES beside them. αMeP = C[C@@]1(C(=O)O)CCCN1
How the values were obtained:
[1] = tested on: layer 5 cortical neurons of MeCP2-/y mice; assay: Whole-cell recordings of spontaneous EPSCs in acute brain slices; format: in vivo, mouse; settings: 20 mg/kg i.p. daily P15 to P28-P32; vs MeCP2-/y mice treated with vehicle
Method: For the survival measurements, the nocturnal activity analysis and the immunoblot analysis, G-2-MePE (synthesised Albany Molecular Research Inc. (Albany, N.Y.) and supplied by Neuren Pharmaceuticals Limited) is administered daily via intra-peritoneal injections (20 mg/kg, vehicle=saline, 0.01% BSA). The treatment starts at PI 5 and is maintained throughout the course of the experiments. For intracellular physiology experiments, the mice are injected daily with G-2-MePE (20 mg/kg body weight, vehicle=saline, 0.01% BSA) for 2 weeks, from P15 to P28-P32 when they are used for acute slice preparation. For optical imaging experiments, mice are injected with G-2-MePE (20 mg/kg body weight, vehicle=saline, 0.01% BSA) daily from the day of the lid suture to the day of imaging. […]
Borosilicate pipettes (3-5 MΩ, WP1) are pulled using a Sutter P-80 puller (Sutter Instruments). Cells are visualized with an Achroplan 40× water-immersion lens with infrared-DIC optics (Zeiss) and detected with an infrared camera (Hamamatsu) projecting to a video monitor. […] Then in current clamp ˜10 pulses (500 ms, 40-140 pA at 10 pA increments), are applied to quantify evoked firing rates and cellular excitability. […] Analysis is performed using a custom software package written in Matlab, with all events detected according to automated thresholds and blindly verified for each event individually by the experimenter. […]

MeCP2 deficient mice = assay: Seizure activity, electroencephalographic recordings; settings: mouse, in vivo
Description: Because seizures are a prominent, hazardous and a difficult to treat aspect of Rett Syndrome, we determine the effects of G-2MePE on seizure activity in MeCP2 deficient animals. G-2-MePE can be effective in treating seizure activity in animals with neurodegenerative disease (U.S. Pat. No. 7,714,020). Therefore, we carry out experiments to determine whether G-2-MePE can also treat seizure activity in MeCP2 deficient mice. Electroencephalograpic recordings of wild-type mice and MeCP2 deficient mice treated with either saline or G-2-MePE are obtained using methods described in U.S. Pat. No. 7,714,020.

Which “spontaneous EPSC amplitude” value [1] does the source give for `C[C@@]1(C(=O)N[C@@H](CCC(=O)O)C(=O)O)CCCN1C(=O)CN` [Example G-2-MePE, Glycyl-L-2-methylprolyl-L-glutamic acid] (H-Gly-[αMeP]-Glu-OH) here?
The value was “significantly larger”.

What about the motor seizures (MeCP2 deficient mice) of the same compound?
Its motor seizures is “effective in decreasing”.

What about the non-convulsive seizures (MeCP2 deficient mice) of the same compound?
The non-convulsive seizures was “effective in decreasing”.
